Assay results as given in PMC7506137, “Selective Phosphodiesterase 1 Inhibitor BTTQ Reduces Blood Pressure in Spontaneously Hypertensive and Dahl Salt Sensitive Rats: Role of Peripheral Vasodilation” (Frontiers in Physiology, 2020).
Like-named read-outs stand apart in the source and are kept apart here.

Experiment: Plasma exposure (dried blood spot) after single oral dose
Type: in vivo
Conditions: male, Sprague Dawley, rat, whole blood (dried blood spot), po
Protocol: Male Sprague Dawley rats at 6 to 7 weeks were dosed orally by p.o. gavage with different doses of BTTQ formulated in 1% hydroxyethlycellulose (Dow Corning, Midland, MI, United States) (w/v), 0.25% polysorbate 80 (Sigma-Aldrich, St. Louis, MO, United States) (v/v), and 0.05% antifoam (v/v; Dow Corning, Midland, MI, United States) in purified water. Following dosing, ear temperature was measured by using a k-type thermocouple probe digital thermometer (Cole Parmer) every hour for 6 h and then at 24 h. Blood samples for plasma exposure measurement were obtained at the same time. Blood was collected via a tail snip directly into a 20-μL EDTA-coated capillary and immediately spotted onto a Whatman DMPK-C DBS card (GE Healthcare Bio-Sciences). Tail snips were performed by removing approximately 1 mm of the tail by using a scalpel. Blood flow was initiated by gentle squeezing of the tail. No analgesia or anesthesia was used during blood collections. A single sample and spot were collected per time point. The DBS cards were allowed to dry for approximately 2 h at room temperature, after which the cards were placed in a zip-top bag, stored, and shipped at ambient temperature.

[1] = 0.03 mg/kg, oral 0.03 mg/kg, FU 0.053, read-out: Unbound Concentration, Mean
[2] = 0.03 mg/kg, oral 0.03 mg/kg, dried blood spot, read-out: Concentration, Mean
[3] = 0.03 mg/kg, oral 0.03 mg/kg, FU 0.053, read-out: Unbound Concentration, individual animals
[4] = 0.03 mg/kg, oral 0.03 mg/kg, dried blood spot, read-out: Concentration, individual animals
[5] = 0.1 mg/kg, oral 0.1 mg/kg, FU 0.053, read-out: Unbound Concentration, Mean
[6] = 0.1 mg/kg, oral 0.1 mg/kg, FU 0.053, read-out: Unbound Concentration, individual animals
[7] = 0.1 mg/kg, oral 0.1 mg/kg, dried blood spot, read-out: Concentration, Mean
[8] = 0.1 mg/kg, oral 0.1 mg/kg, dried blood spot, read-out: Concentration, individual animals
[9] = 0.3 mg/kg, oral 0.3 mg/kg, FU 0.053, read-out: Unbound Concentration, Mean
[10] = 0.3 mg/kg, oral 0.3 mg/kg, FU 0.053, read-out: Unbound Concentration, individual animals
[11] = 0.3 mg/kg, oral 0.3 mg/kg, dried blood spot, read-out: Concentration, Mean
[12] = 0.3 mg/kg, oral 0.3 mg/kg, dried blood spot, read-out: Concentration, individual animals
[13] = 1 mg/kg, oral 1 mg/kg, FU 0.053, read-out: Unbound Concentration, Mean

O=c1c2nnc(C3(C4CC4)CC3)n2c2c(n1CC1CC1)CCCC2 [BTTQ, 1-[1,1′-bi(cyclopropyl)-1-yl]-5-(cyclopropylmethyl)-6,7,8,9-tetrahydro[1,2,4]triazolo[4,3-A]quinoxaline-4(5H)-one]
concentration at 1 h [1]: 2.52 nM | concentration at 1 h [2]: 47.5 nM | concentration at 2 h [1]: 2.66 nM | concentration at 2 h [3]: 2.17 nM | concentration at 2 h [2]: 50.2 nM | concentration at 2 h [4]: 40.9 nM | concentration at 3 h [1]: 2.23 nM | concentration at 3 h [3]: 2.04 nM | concentration at 3 h [2]: 42.1 nM | concentration at 3 h [4]: 38.4 nM | concentration at 4 h [1]: 1.81 nM | concentration at 4 h [3]: 1.67 nM | concentration at 4 h [2]: 34.2 nM | concentration at 4 h [4]: 31.6 nM | concentration at 5 h [1]: 1.5 nM | concentration at 5 h [3]: 1.86 nM | concentration at 5 h [2]: 28.3 nM | concentration at 5 h [4]: 35.1 nM | concentration at 6 h [1]: 1.16 nM | concentration at 6 h [2]: 22 nM | concentration at 24 h [1]: 0 nM | concentration at 24 h [2]: 0 nM | concentration at 1 h [5]: 10.6 nM | concentration at 1 h [6]: 13.2 nM | concentration at 1 h [7]: 201 nM | concentration at 1 h [8]: 249 nM | concentration at 2 h [5]: 10 nM | concentration at 2 h [6]: 11.7 nM | concentration at 2 h [7]: 189 nM | concentration at 2 h [8]: 220 nM | concentration at 3 h [5]: 8.98 nM | concentration at 3 h [6]: 8.9 nM | concentration at 3 h [7]: 169 nM | concentration at 3 h [8]: 168 nM | concentration at 4 h [5]: 6.75 nM | concentration at 4 h [6]: 7.1 nM | concentration at 4 h [7]: 127 nM | concentration at 4 h [8]: 134 nM | concentration at 5 h [5]: 5.13 nM | concentration at 5 h [6]: 5.99 nM | concentration at 5 h [7]: 96.9 nM | concentration at 5 h [8]: 113 nM | concentration at 6 h [5]: 4.61 nM | concentration at 6 h [6]: 4.62 nM | concentration at 6 h [7]: 87 nM | concentration at 6 h [8]: 87.1 nM | concentration at 24 h [5]: 0.462 nM | concentration at 24 h [6]: 2.31 nM | concentration at 24 h [7]: 8.7 nM | concentration at 24 h [8]: 43.5 nM | concentration at 1 h [9]: 27.7 nM | concentration at 1 h [10]: 24.2 nM | concentration at 1 h [11]: 523 nM | concentration at 1 h [12]: 456 nM | concentration at 2 h [9]: 23.7 nM | concentration at 2 h [10]: 19.3 nM | concentration at 2 h [11]: 447 nM | concentration at 2 h [12]: 364 nM | concentration at 3 h [9]: 16.6 nM | concentration at 3 h [10]: 14.7 nM | concentration at 3 h [11]: 314 nM | concentration at 3 h [12]: 278 nM | concentration at 4 h [9]: 11.8 nM | concentration at 4 h [10]: 12.3 nM | concentration at 4 h [11]: 223 nM | concentration at 4 h [12]: 232 nM | concentration at 5 h [9]: 8.68 nM | concentration at 5 h [10]: 8.75 nM | concentration at 5 h [11]: 164 nM | concentration at 5 h [12]: 165 nM | concentration at 6 h [9]: 6.73 nM | concentration at 6 h [10]: 7.26 nM | concentration at 6 h [11]: 127 nM | concentration at 6 h [12]: 137 nM | concentration at 24 h [9]: 0 nM | concentration at 24 h [11]: 0 nM | concentration at 1 h [13]: 92.5 nM | concentration at 1 h (1 mg/kg, oral 1 mg/kg, dried blood spot, read-out: Concentration, Mean): 1750 nM | concentration at 2 h [13]: 87.6 nM
